Read-outs that look alike come from different tables or passages of the source. Ends that are not written are not given here.
Experiments:
Assay in all cases: biochemical
Assay type in all cases: binding
HLA-DR DRB1*04:01 = HLA-DR DRB1*04:01 (Homo sapiens, UniProt P01903+P01911, A100K/A169T/F76Y/I96L/K127E/L162R/M171V/N62H/P40V/Q125Y/R42H/S133A/S149N/S66Y/V115G/V209L/W38E)
HLA-DR DRB1*11:01 = HLA-DR DRB1*11:01 (Homo sapiens, UniProt P01903+P01911, A100R/A169T/A87E/I96F/K41T/L162R/M171V/P40S/Q125H/Q178H/Q39Y/Q99D/R42S/S66Y/T262R/V115G/W38E)
HLA-DR DRB1*07:01 = HLA-DR DRB1*07:01 (Homo sapiens, UniProt P01903+P01911, A100R/A102G/A103Q/D57E/D86V/E43K/F76Y/K127E/L162R/M171V/P40G/Q125H/Q99D/R33Q/R42Y/R54Q/S133A/S66F/T210M/V115G/Y107V/Y59L/Y89S)
[1] = target: T1, HLA-DP DPA1*01:03/DPB1*20:01 (Homo sapiens, UniProt P04440+P20036, A65V/A84D/A85E/E86D/F38Y/G113D/G114E/G40L/I94L/L37V/M116V/P115A/R125K/T199I)
T1 sequence (P20036 29-260): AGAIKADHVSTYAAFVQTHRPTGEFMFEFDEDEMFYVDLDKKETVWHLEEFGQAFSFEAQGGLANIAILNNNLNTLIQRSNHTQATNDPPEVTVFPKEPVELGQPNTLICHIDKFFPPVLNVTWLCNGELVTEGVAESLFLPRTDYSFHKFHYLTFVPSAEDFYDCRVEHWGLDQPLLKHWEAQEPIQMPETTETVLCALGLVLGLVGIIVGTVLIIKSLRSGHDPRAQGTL
T1 sequence (P04440 30-258 L37V/F38Y/G40L/A65V/A84D/A85E/E86D/I94L/G113D/G114E/P115A/M116V/R125K/T199I/V234M): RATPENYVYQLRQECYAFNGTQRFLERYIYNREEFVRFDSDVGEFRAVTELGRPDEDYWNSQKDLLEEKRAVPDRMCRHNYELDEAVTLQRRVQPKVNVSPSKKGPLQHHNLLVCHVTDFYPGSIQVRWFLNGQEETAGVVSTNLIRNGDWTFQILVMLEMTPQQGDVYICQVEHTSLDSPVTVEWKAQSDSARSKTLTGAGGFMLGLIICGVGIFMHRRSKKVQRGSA

HLA-DR DRB1*04:05 = HLA-DR DRB1*04:05 (Homo sapiens, UniProt P01903+P01911, A100R/A169T/D86S/F76Y/I96L/K127E/L162R/M171V/N62H/P40V/Q125Y/R42H/S133A/S149N/S66Y/V115G/V209L/W38E)
HLA-DR DRB1*01:01 = HLA-DR DRB1*01:01 (Homo sapiens, UniProt P01903+P01911, A100R/D57E/F55L/F60I/F76Y/I96L/L162R/M171V/P40L/Q125E/R42F/V115G/Y59C)
HLA-DR DRB1*09:01 = HLA-DR DRB1*09:01 (Homo sapiens, UniProt P01903+P01911, A100R/A103E/D57H/D86V/F55Y/F60I/F76Y/I96F/K127E/L162R/M171V/P40D/Q125H/Q99R/R33Q/R42F/S133A/S66N/T210M/V115G/W38K/Y107V/Y59G/Y89S)
[2] = target: T2, HLA-DP DPA1*01:03/DPB1*02:01 (Homo sapiens, UniProt P04440+P20036, A65V/A84D/A85E/K98E)
T2 sequence (P20036 29-260): T1 sequence (P20036 29-260)
T2 sequence (P04440 30-258 A65V/A84D/A85E/K98E): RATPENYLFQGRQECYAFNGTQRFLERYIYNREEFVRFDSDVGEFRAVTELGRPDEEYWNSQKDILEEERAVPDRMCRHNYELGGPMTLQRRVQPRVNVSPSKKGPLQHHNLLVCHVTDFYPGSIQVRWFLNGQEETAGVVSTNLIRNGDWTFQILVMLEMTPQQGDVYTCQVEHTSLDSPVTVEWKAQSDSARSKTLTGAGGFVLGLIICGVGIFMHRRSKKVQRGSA

HLA-DR DRB1*12:01 = HLA-DR DRB1*12:01 (Homo sapiens, UniProt P01903+P01911, A100R/A169T/D57E/D86V/F55L/H45Y/K41T/L162R/M171V/P40S/Q125H/Q178H/Q39Y/Q99D/R42G/S66L/T262R/V114A/V67L/W38E/Y59H/Y61H/Y89S)
HLA-DR DRB1*03:01 = HLA-DR DRB1*03:01 (Homo sapiens, UniProt P01903+P01911, A100K/A102G/A103R/A169T/F55Y/I96L/K41T/L162R/M171V/P40S/Q125H/Q178H/Q39Y/R42S/S66N/T106N/T262R/W38E/Y61H)
HLA-DR DRB1*08:02 = HLA-DR DRB1*08:02 (Homo sapiens, UniProt P01903+P01911, A100R/A103L/A169T/F76Y/H45Y/I96F/K41T/L162R/M171V/P40S/Q125H/Q178H/Q39Y/Q99D/R218S/R42G/S66Y/V115G/W38E)
HLA-DR DRB1*13:02 = HLA-DR DRB1*13:02 (Homo sapiens, UniProt P01903+P01911, A100E/A169T/K41T/L162R/M171V/P40S/Q125H/Q178H/Q39Y/Q99D/R42S/S66N/T262R/V115G/W38E/Y61H)
HLA-DR DRB1*10:01 = HLA-DR DRB1*10:01 (Homo sapiens, UniProt P01903+P01911, A100R/A169T/D57E/F55L/F60V/F69Y/F76Y/I96L/L162R/M171V/P40V/Q260P/Q39E/Q99R/R195Q/R42F/S149N/S66Y/T210M/V115G/V67A/W38E/Y59R/Y61H)
[3] = read-out: Binding capacity/IC50 (nM) DRB1*04:01
[4] = read-out: Binding capacity/IC50 (nM) DRB1*11:01
[5] = read-out: Binding capacity/IC50 (nM) DRB1*07:01
[6] = read-out: Binding capacity/IC50 (nM) DRB1*04:05
[7] = read-out: Binding capacity/IC50 (nM) DRB1*01:01
[8] = read-out: Binding capacity/IC50 (nM) DRB1*09:01
[9] = read-out: Binding capacity/IC50 (nM) DPA1*01:03 DPB1*02:01
[10] = read-out: Binding capacity/IC50 (nM) DRB1*12:01
[11] = read-out: Binding capacity/IC50 (nM) DRB1*03:01
[12] = read-out: Binding capacity/IC50 (nM) DRB1*08:02
[13] = read-out: Binding capacity/IC50 (nM) DRB1*13:02
[14] = read-out: Binding capacity/IC50 (nM) DPA1*01:03 DPB1*20:01
[15] = read-out: Binding capacity/IC50 (nM) DRB1*10:01

Chain of HLA-DR DRB1*03:01 (P01903 26-254 limits assumed, other chains not shown): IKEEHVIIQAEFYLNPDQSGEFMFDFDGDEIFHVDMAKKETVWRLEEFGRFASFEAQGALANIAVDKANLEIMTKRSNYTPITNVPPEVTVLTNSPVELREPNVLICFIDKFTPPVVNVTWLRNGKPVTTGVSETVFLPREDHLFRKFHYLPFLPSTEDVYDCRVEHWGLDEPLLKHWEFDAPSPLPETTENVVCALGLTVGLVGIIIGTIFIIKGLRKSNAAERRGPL
Chain of HLA-DR DRB1*11:01 (P01903 26-254 limits assumed, other chains not shown): as above
Chain of HLA-DR DRB1*13:02 (P01903 26-254 limits assumed, other chains not shown): as above

Row | Compound | IC50 (HLA-DR DRB1*04:01; [3]) | IC50 (HLA-DR DRB1*11:01; [4]) | IC50 (HLA-DR DRB1*07:01; [5]) | IC50 [1] | IC50 (HLA-DR DRB1*04:05; [6]) | IC50 (HLA-DR DRB1*01:01; [7]) | IC50 (HLA-DR DRB1*09:01; [8]) | IC50 [2, 9] | IC50 (HLA-DR DRB1*12:01; [10]) | IC50 (HLA-DR DRB1*03:01; [11]) | IC50 (HLA-DR DRB1*08:02; [12]) | IC50 (HLA-DR DRB1*13:02; [13]) | IC50 [1, 14] | IC50 (HLA-DR DRB1*10:01; [15]) | other results
1 | CC[C@H](C)[C@H](NC(=O)CNC(=O)[C@H](CCCCN)NC(=O)[C@H](Cc1c[nH]cn1)NC(=O)[C@H](C)NC(=O)[C@@H]1CCCN1C(=O)[C@@H](NC(=O)[C@H](Cc1c[nH]c2ccccc12)NC(=O)[C@H](CO)NC(=O)[C@H](CC(C)C)NC(=O)[C@H](Cc1ccc(O)cc1)NC(=O)[C@@H](NC(=O)[C@H](CCCCN)NC(=O)[C@H](CCC(=O)O)NC(=O)[C@@H](N)CCCCN)C(C)C)C(C)C)C(=O)NCC(=O)NCC(=O)N[C@@H](CC(N)=O)C(=O)N[C@@H](CCC(=O)O)C(N)=O [RT(528-546)] | 68 nM | 3150 nM | 6.3 nM | 6 nM | 41 nM | 16 nM | 33 nM | 45 nM | 2100 nM | 612 nM | – | – | – | – | –
2 | CC[C@H](C)[C@H](NC(=O)[C@@H]1CCCN1C(=O)[C@H](CCC(=O)O)NC(=O)[C@@H](N)CCCCN)C(=O)N[C@H](C(=O)NCC(=O)N[C@@H](C)C(=O)N[C@@H](CCC(=O)O)C(=O)N[C@H](C(=O)N[C@@H](Cc1ccccc1)C(=O)N[C@@H](Cc1ccc(O)cc1)C(=O)N[C@H](C(=O)N[C@@H](CC(=O)O)C(=O)NCC(=O)N[C@@H](C)C(N)=O)C(C)C)[C@@H](C)O)C(C)C [RT(431-445)] | 23 nM | 3190 nM | 75 nM | – | 50 nM | 5.1 nM | 23 nM | 30 nM | 293 nM | – | 19 nM | 266 nM | 26100 nM | 4.4 nM | –
3 | CC[C@H](C)[C@H](NC(=O)[C@H](Cc1ccc(O)cc1)NC(=O)CNC(=O)[C@H](CO)NC(=O)[C@H](C)NC(=O)[C@@H](NC(=O)[C@H](Cc1c[nH]cn1)NC(=O)[C@@H](NC(=O)[C@H](C)NC(=O)[C@@H](NC(=O)[C@H](CC(C)C)NC(=O)[C@@H](NC(=O)[C@@H](NC(=O)[C@H](CCCCN)NC(=O)CNC(=O)[C@@H](N)CCC(=O)O)[C@@H](C)CC)[C@@H](C)CC)C(C)C)C(C)C)C(C)C)C(=O)N[C@@H](CCC(=O)O)C(N)=O [integrase(69-85)] | 7.6 nM | – | 70 nM | – | 430 nM | 0.56 nM | 58 nM | 4.5 nM | 2940 nM | 7940 nM | 11 nM | 17000 nM | 470 nM | 4.8 nM | –
4 | YAKMRSAHTNDVKQL-NH2 [RT(354-368)] | 79 nM | 1760 nM | 120 nM | – | 926 nM | – | 66 nM | 687 nM | 4840 nM | 7100 nM | 2.1 nM | 74 nM | 202 nM | 16 nM | –
5 | NYPIVQNLQGQMVHQAISPR-NH2 [p17(131-132)/p24(1-18)] | 83 nM | 1130 nM | 5420 nM | – | 428 nM | 4.4 nM | 248 nM | 55 nM | 940 nM | – | 71 nM | – | 952 nM | 59 nM | –
6 | LNKIVRMYSPVSILDI-NH2 [p24(138-153)] | – | 79 nM | – | – | 49 nM | – | 36 nM | – | – | – | 3.1 nM | – | 3 nM | 6.6 nM | IC50 [2]: 357 nM
7 | IRYPLTFGWCFKLVPVDPREVEEA-NH2 [nef(133-156)] | – | 4540 nM | 472 nM | – | 398 nM | 315 nM | 360 nM | 119 nM | 4430 nM | 704 nM | 2160 nM | 4290 nM | 13000 nM | – | –
8 | DEELLKAVRIIKILYQSNP-NH2 [rev(9-27)] | 13 nM | 2120 nM | 41 nM | – | 64 nM | 7.4 nM | 124 nM | – | 66 nM | 632 nM | 9.5 nM | – | 202 nM | 3.9 nM | IC50 [2]: 7 nM
9 | VGSLQYLALTALITPKK-NH2 [vif(142-158)] | – | – | – | 262 nM | – | – | – | 76 nM | – | – | – | – | – | – | IC50 (HLA-DR DRB1*04:01): 6.4 nM; IC50 (HLA-DR DRB1*11:01): 48 nM; IC50 (HLA-DR DRB1*07:01): 4.1 nM; IC50 (HLA-DR DRB1*08:02): 25 nM; IC50 (HLA-DR DRB1*13:02): 7.1 nM; IC50 (HLA-DR DRB1*04:05): 2.3 nM; IC50 (HLA-DR DRB1*01:01): 0.35 nM; IC50 (HLA-DR DRB1*09:01): 64 nM; IC50 (HLA-DR DRB1*12:01): 1670 nM; IC50 (HLA-DR DRB1*03:01): 4510 nM
10 | EAVRHFPRPWLHGL-NH2 [vpr(29-42)] | – | – | – | 31 nM | – | – | – | 2140 nM | – | – | – | – | – | – | IC50 (HLA-DR DRB1*04:01): 1290 nM; IC50 (HLA-DR DRB1*11:01): > 30000 nM; IC50 (HLA-DR DRB1*07:01): 1390 nM; IC50 (HLA-DR DRB1*08:02): 130 nM; IC50 (HLA-DR DRB1*10:01): 311 nM; IC50 (HLA-DR DRB1*01:01): 71 nM; IC50 (HLA-DR DRB1*09:01): 1270 nM; IC50 (HLA-DR DRB1*12:01): > 30000 nM; IC50 (HLA-DR DRB1*03:01): > 30000 nM
